Assays:
human MER (528-end) = target: T1, human MER (528-end) (Homo sapiens, UniProt Q12866); assay: HTRF kinase activity biochemical assay, MER; details: recombinant kinase, 10 uM ATP, 30 minutes pre-incubation; read-out: HTRF MERTK IC50;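 also: phosphorylation of a biotin-tagged tyrosine kinase substrate detected by Eu3+-cryptate antibody and streptavidin-XL665 time-resolved fluorescence, read after 1 h at room temperature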
T1 construct: human MER (528-end); purchased Carnabio, Japan
T1 sequence (Q12866 528-999 limits assumed): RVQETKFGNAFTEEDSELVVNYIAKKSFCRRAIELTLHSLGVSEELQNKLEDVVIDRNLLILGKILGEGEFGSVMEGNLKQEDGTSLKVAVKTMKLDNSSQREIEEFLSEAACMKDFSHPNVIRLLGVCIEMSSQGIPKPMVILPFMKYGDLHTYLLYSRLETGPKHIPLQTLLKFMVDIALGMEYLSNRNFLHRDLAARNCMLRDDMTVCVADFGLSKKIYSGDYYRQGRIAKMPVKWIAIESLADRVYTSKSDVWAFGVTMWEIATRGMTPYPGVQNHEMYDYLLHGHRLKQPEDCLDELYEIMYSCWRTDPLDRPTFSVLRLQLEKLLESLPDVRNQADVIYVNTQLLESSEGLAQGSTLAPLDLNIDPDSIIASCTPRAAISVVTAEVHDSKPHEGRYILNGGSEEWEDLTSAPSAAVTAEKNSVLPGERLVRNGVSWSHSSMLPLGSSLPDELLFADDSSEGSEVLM

human AXL (473-end) = target: T2, human AXL (473-end) (Homo sapiens, UniProt P30530); assay: HTRF kinase activity biochemical assay, AXL; details: recombinant kinase, 10 uM ATP, 30 minutes pre-incubation; read-out: HTRF AXL IC50;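 also: phosphorylation of a biotinylated tyrosine kinase substrate detected via Eu3+-cryptate anti-TK antibody and streptavidin-XL665, fluorescence read after a 1 h incubation at room temperature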
T2 construct: human AXL (473-end); purchased SignalChem, Canada
T2 sequence (P30530 473-894 limits assumed): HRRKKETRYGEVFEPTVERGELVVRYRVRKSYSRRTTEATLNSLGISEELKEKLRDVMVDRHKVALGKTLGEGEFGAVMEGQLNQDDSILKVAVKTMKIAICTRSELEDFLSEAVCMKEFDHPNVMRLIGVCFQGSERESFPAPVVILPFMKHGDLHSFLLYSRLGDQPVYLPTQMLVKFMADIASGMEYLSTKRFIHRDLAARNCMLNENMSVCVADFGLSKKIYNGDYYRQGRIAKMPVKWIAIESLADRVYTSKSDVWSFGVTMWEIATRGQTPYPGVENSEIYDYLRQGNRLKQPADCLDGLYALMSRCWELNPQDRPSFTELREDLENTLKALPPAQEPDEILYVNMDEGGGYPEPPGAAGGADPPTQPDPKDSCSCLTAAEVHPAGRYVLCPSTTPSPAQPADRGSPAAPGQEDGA

TYRO3 (455-end) = target: T3, TYRO3 (455-end) (Homo sapiens, UniProt Q06418); assay: HTRF kinase activity biochemical assay, TYRO3; details: recombinant kinase, 10 uM ATP, 30 minutes pre-incubation; read-out: HTRF TYRO IC50;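 also: biotinylated tyrosine kinase substrate phosphorylation detected via streptavidin-XL665 and Eu3+-cryptate anti-phospho antibody time-resolved fluorescence, read after 1 h detection at room temperature, 384-well format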
T3 construct: TYRO3 (455-end); purchased SignalChem, Canada
T3 sequence (Q06418 455-890 limits assumed): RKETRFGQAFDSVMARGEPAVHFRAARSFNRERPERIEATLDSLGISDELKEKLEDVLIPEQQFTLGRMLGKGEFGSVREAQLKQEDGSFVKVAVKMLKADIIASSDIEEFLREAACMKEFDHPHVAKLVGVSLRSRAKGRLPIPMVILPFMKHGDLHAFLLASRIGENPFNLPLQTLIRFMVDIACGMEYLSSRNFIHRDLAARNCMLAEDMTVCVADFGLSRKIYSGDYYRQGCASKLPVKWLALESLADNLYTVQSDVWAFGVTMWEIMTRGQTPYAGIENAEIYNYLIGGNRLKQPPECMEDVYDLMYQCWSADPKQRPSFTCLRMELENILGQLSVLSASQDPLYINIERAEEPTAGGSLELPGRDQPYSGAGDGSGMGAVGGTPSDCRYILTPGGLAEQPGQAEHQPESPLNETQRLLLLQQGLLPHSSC

Row | IC50 (human MER (528-end)) [nM] | IC50 (human AXL (473-end)) [nM] | IC50 (TYRO3 (455-end)) [nM] | Structure (SMILES)
1 | < 1 | 4 | 880 | Cn1cc(Nc2ccc(C3CN(c4nc5ccc(OCC(C)(C)OC(=O)CN)cc5o4)C3)nc2C(N)=O)cn1 [Example 108, 1-{[2-(3-{6-carbamoyl-5-[(1-methyl-1H-pyrazol-4-yl)amino]pyridin-2-yl}azetidin-1-yl)-1,3-benzoxazol-6-yl]oxy}-2-methylpropan-2-yl glycinate]
2 | < 1 | 5 | 37 | COC[C@H]1CCCN1C(=O)c1ccc2nc(N3CC(c4cnc(Nc5cnn(C)c5)c(C(N)=O)n4)C3)oc2c1 [Example 64, 6-(1-{6-[(2R)-2-(methoxymethyl)pyrrolidine-1-carbonyl]-1,3-benzoxazol-2-yl}azetidin-3-yl)-3-[(1-methyl-1H-pyrazol-4-yl)amino]pyrazine-2-carboxamide]
3 | 4 | 27 | 620 | CCOC(=O)Cn1cc(COc2ccc3nc(N4CC(c5cnc(Nc6cnn(C)c6)c(C(N)=O)n5)C4)oc3c2)cn1 [Example 104C, ethyl [4-({[2-(3-{6-carbamoyl-5-[(1-methyl-1H-pyrazol-4-yl)amino]pyrazin-2-yl}azetidin-1-yl)-1,3-benzoxazol-6-yl]oxy}methyl)-1H-pyrazol-1-yl]acetate]
4 | 5 | 11 | 63 | Cc1nnc(COc2ccc3nc(N4CC(c5cnc(Nc6cnn(C)c6)c(C(N)=O)n5)C4)oc3c2)o1 [Example 86, 6-(1-{6-[(5-methyl-1,3,4-oxadiazol-2-yl)methoxy]-1,3-benzoxazol-2-yl}azetidin-3-yl)-3-[(1-methyl-1H-pyrazol-4-yl)amino]pyrazine-2-carboxamide]
5 | < 1 | 1 | 1010 | Cn1cc(Nc2ncc(C3CN(c4nc5ccc(CC(=O)N6CCCC6)cc5o4)C3)nc2C(N)=O)cn1 [Example 65, 3-[(1-methyl-1H-pyrazol-4-yl)amino]-6-(1-{6-[2-oxo-2-(pyrrolidin-1-yl)ethyl]-1,3-benzoxazol-2-yl}azetidin-3-yl)pyrazine-2-carboxamide]
6 | 1 | 9 | 170 | NC(=O)c1nc(C2CN(c3nc4ccc(F)cc4o3)C2)cnc1Nc1cnn(CC(O)CO)c1 (stereo not drawn) [Example 36, 3-{[1-(2,3-dihydroxypropyl)-1H-pyrazol-4-yl]amino}-6-[1-(6-fluoro-1,3-benzoxazol-2-yl)azetidin-3-yl]pyrazine-2-carboxamide]
7 | < 1 | 2 | 66 | Cn1cc(Nc2ncc(C3CN(c4nc5ccc(OC6CCCC6O)cc5o4)C3)nc2C(N)=O)cn1 (stereo not drawn) [Example 79, 6-(1-{6-[(2-hydroxycyclopentyl)oxy]-1,3-benzoxazol-2-yl}azetidin-3-yl)-3-[(1-methyl-1H-pyrazol-4-yl)amino]pyrazine-2-carboxamide]
8 | 8 | 59 | 3500 | Cn1cc(Nc2ncc(C3CN(c4nc5ccc(OCc6cnn(CCO)c6)cc5o4)C3)nc2C(N)=O)cn1 [Example 104, 6-[1-(6-{[1-(2-hydroxyethyl)-1H-pyrazol-4-yl]methoxy}-1,3-benzoxazol-2-yl)azetidin-3-yl]-3-[(1-methyl-1H-pyrazol-4-yl)amino]pyrazine-2-carboxamide]
9 | < 1 | 2 | 92 | Cn1cc(Nc2ncc(C3CN(c4nc5ccc(OCC6CC(CO)C6)cc5o4)C3)nc2C(N)=O)cn1 (stereo not drawn) [Example 56, 6-[1-(6-{[3-(hydroxymethyl)cyclobutyl]methoxy}-1,3-benzoxazol-2-yl)azetidin-3-yl]-3-[(1-methyl-1H-pyrazol-4-yl)amino]pyrazine-2-carboxamide]
10 | < 1 | 3 | 280 | Cn1cc(Nc2ncc(C3CN(c4nc5ccc(OCCC(C)(C)OC(=O)CN)cc5o4)C3)nc2C(N)=O)cn1 [Example 95, 4-{[2-(3-{6-carbamoyl-5-[(1-methyl-1H-pyrazol-4-yl)amino]pyrazin-2-yl}azetidin-1-yl)-1,3-benzoxazol-6-yl]oxy}-2-methylbutan-2-yl glycinate]
11 | 1 | 4 | 150 | Cn1cc(COc2ccc3nc(N4CC(c5cnc(Nc6cnn(C)c6)c(C(N)=O)n5)C4)oc3c2)cn1 [Example 97, 3-[(1-methyl-1H-pyrazol-4-yl)amino]-6-(1-{6-[(1-methyl-1H-pyrazol-4-yl)methoxy]-1,3-benzoxazol-2-yl}azetidin-3-yl)pyrazine-2-carboxamide]
12 | 1 | 2 | 280 | Cn1cc(Nc2ncc(C3CN(c4nc5ccc(C6=CCOCC6)cc5o4)C3)nc2C(N)=O)cn1 [Example 11, 6-{1-[6-(3,6-dihydro-2H-pyran-4-yl)-1,3-benzoxazol-2-yl]azetidin-3-yl}-3-[(1-methyl-1H-pyrazol-4-yl)amino]pyrazine-2-carboxamide]
13 | 3 | 9 | 550 | Cn1cc(Nc2ncc(C3CN(c4nc5ccc(C6CCOC6)cc5o4)C3)nc2C(N)=O)cn1 (stereo not drawn) [Example 15, 3-[(1-methyl-1H-pyrazol-4-yl)amino]-6-{1-[6-(oxolan-3-yl)-1,3-benzoxazol-2-yl]azetidin-3-yl}pyrazine-2-carboxamide]
14 | 2 | 3 | 230 | Cn1cc(Nc2ncc(C3CN(c4nc5ccc(OC[C@H]6COCCO6)cc5o4)C3)nc2C(N)=O)cn1 [Example 48, 6-[1-(6-{[(2R)-1,4-dioxan-2-yl]methoxy}-1,3-benzoxazol-2-yl)azetidin-3-yl]-3-[(1-methyl-1H-pyrazol-4-yl)amino]pyrazine-2-carboxamide]
15 | < 1 | 2 | 210 | Cn1cc(Nc2ncc(C3CN(c4nc5ccc(OCC6COC6)cc5o4)C3)nc2C(N)=O)cn1 [Example 41, 3-[(1-methyl-1H-pyrazol-4-yl)amino]-6-(1-{6-[(oxetan-3-yl)methoxy]-1,3-benzoxazol-2-yl}azetidin-3-yl)pyrazine-2-carboxamide]
16 | < 1 | < 1 | 90 | COC/C=C/c1ccc2nc(N3CC(c4cnc(Nc5cnn(C)c5)c(C(N)=O)n4)C3)oc2c1 [Example 22, 6-(1-{6-[(1E)-3-methoxyprop-1-en-1-yl]-1,3-benzoxazol-2-yl}azetidin-3-yl)-3-[(1-methyl-1H-pyrazol-4-yl)amino]pyrazine-2-carboxamide]
17 | < 1 | 1.8 | 280 | Cn1cc(Nc2ccc(C3CN(c4nc5ccc(OCCC(C)(C)OC(=O)CN)cc5o4)C3)nc2C(N)=O)cn1 [Example 110, 4-{[2-(3-{6-carbamoyl-5-[(1-methyl-1H-pyrazol-4-yl)amino]pyridin-2-yl}azetidin-1-yl)-1,3-benzoxazol-6-yl]oxy}-2-methylbutan-2-yl glycinate]

Row | Structure (SMILES) | IC50 (human MER (528-end)) [nM] | IC50 (human AXL (473-end)) [nM] | IC50 (TYRO3 (455-end)) [nM]
18 | CC(C)(O)CCOc1ccc2nc(N3CC(c4cnc(Nc5cn[nH]c5)c(C(N)=O)n4)C3)oc2c1 [Example 96B, 6-{1-[6-(3-hydroxy-3-methylbutoxy)-1,3-benzoxazol-2-yl]azetidin-3-yl}-3-[(1H-pyrazol-4-yl)amino]pyrazine-2-carboxamide] | 2 | 7 | 670
19 | Cn1cc(Nc2ncc(C3CN(c4nc5ccc(OCCC(C)(C)OC(=O)CNC(=O)OC(C)(C)C)cc5o4)C3)nc2C(N)=O)cn1 [Example 95A, 4-{[2-(3-f{6-carbamoyl-5-[(1-methyl-1H-pyrazol-4-yl)amino]pyrazin-2-yl}azetidin-1-yl)-1,3-benzoxazol-6-yl]oxy}-2-methylbutan-2-yl [(tert-butoxycarbonyl)amino]acetate] | < 1 | 3 | 460

Source: patent publication US20260232658A1, “AZETIDINYL BENZOXAZOLE COMPOUNDS AND THEIR USE AS MER AND AXL INHIBITORS” (DONG-A ST CO., LTD., priority 2022, published 2026)
